Literature values, collected in article PMC7098970, “Neurosteroids as Selective Inhibitors of Glycine Receptor Activity: Structure-Activity Relationship Study on Endogenous Androstanes and Androstenes” (Frontiers in Molecular Neuroscience, 2020).
Where a name gives a salt, the structure may show the parent alone.

Columns and labels:
[1] = system: GABAAR; set-up: method as in Park-Chung et al., 1999; details: ref Park-Chung et al., 1999; cited from earlier work
[2] = system: recombinant GlyRs; set-up: method as in Maksay et al. (2001); details: expressed in frog oocytes; ref Maksay et al. (2001); read-out: IC50 for inhibition of recombinant GlyRs; cited from earlier work

SMILES	Efficacy of potentiation of IGABA [1]	IC50 [2]
CC(O)C1CCC2C3CCC4CC(O)CCC4(C)C3CCC12C (stereo not drawn) [20α-hydroxy analog]	166%	
CC(=O)[C@H]1CC[C@H]2[C@@H]3CC[C@H]4C[C@H](O)CC[C@]4(C)[C@H]3CC[C@]12C [3α-hydroxy-5α-pregnane-20-one]	1373%	
C[C@]12CC[C@H](OS(=O)(=O)O)CC1=CCC1C2CC[C@]2(C)C(=O)CCC12 (stereo partly drawn) [DHEA sulfate]		2.5 to 6.3 µM
